Measurements taken from patent publication US20020147230A1, “Aminal Diones as potassium channel openers” (priority 2001, published 2002).
Where two headings read alike, the source gives them in different places.

Key:
[1] = test system: primary cultured guinea-pig urinary bladder (GPB) cells; assay: Membrane hyperpolarization (MHP) assay, DiBAC(4)3 / FLIPR; assay type: cell-based; settings: for EC50: membrane hyperpolarization in guinea-pig bladder cells
Procedure: Compounds were evaluated for potassium channel opening activity using primary cultured guinea-pig urinary bladder (GPB) cells.
For the preparation of urinary bladder smooth muscle cells, urinary bladders were removed from male guinea-pigs (Hartley, Charles River, Wilmington, Mass.) weighing 300-400 g and placed in ice-cold Ca^2+-free Krebs solution (composition, mM: KCl, 2.7; KH2PO4, 1.5; NaCl, 75; Na2HPO4, 9.6; Na2HPO4.7H2O, 8; MgSO4, 2; glucose, 5; HEPES, 10; pH 7.4). Cells were isolated by enzymatic dissociation as previously described with minor modifications (Klockner and Isenberg, Pflugers Arch. (1985), 405, 329-339), hereby incorporated by reference. The bladder was cut into small sections and incubated in 5 mL of the Kreb's solution containing 1 mg/mL collagenase (Sigma, St. Louis, Mont.) and 0.2 mg/mL pronase (Calbiochem, La Jolla, Calif.) with continuous stirring in a cell incubator for 30 minutes. The mixture was then centrifuged at 1300× g for 5 minutes, and the pellet resuspended in Dulbecco's PBS (GIBCO, Gaithersburg, Md.) and recentrifuged to remove residual enzyme. The cell pellet was resuspended in 5 mL growth media (composition: Dulbecco's modified Eagle's medium supplemented with 10% fetal bovine serum, 100 units/mL penicillin, 100 units/mL streptomycin and […] amphotericin B) and further dissociated by pipetting the suspension through a flame-polished Pasteur pipette and passing it through a polypropylene mesh membrane (Spectrum, Houston, Tex.). The cell density was adjusted to 100,000 cells/mL by resuspension in growth media. Cells were plated in clear-bottomed black 96-well plates (Packard) for membrane potential studies at a density of 20,000 cells/well and maintained in a cell incubator with 90% air:10% CO2 until confluent. Cells were confirmed to be of smooth muscle type by cytoskeletal staining using a monoclonal mouse anti human-α-smooth muscle actin (Biomeda, Foster City, Calif.).
Functional activity at potassium channels was measured by evaluating changes in membrane potential using the bis-oxonol dye DiBAC(4)3 (Molecular Probes) in a 96-well cell-based kinetic assay system, Fluorescent Imaging Plate Reader (FLIPR) (K. S. Schroeder et al., J. Biomed. Screen., v. 1 pp. 7581 (1996)), hereby incorporated by reference. DiBAC(4)3 is an anionic potentiometric probe which partitions between cells and extracellular solution in a membrane potential-dependent manner. With increasing membrane potential (for example, K^+ depolarization), the probe further partitions into the cell; this is measured as an increase in fluorescence due to dye interaction with intracellular lipids and proteins. Conversely, decreasing membrane potential (hyperpolarization by potassium channel openers) evokes a decrease in fluorescence.
Confluent guinea-pig urinary bladder cells cultured in black clear-bottomed 96-well plates were rinsed twice with […] assay buffer (composition, mM: HEPES, 20; NaCl, 120; KCl, 2; CaCl2, 2; MgCl2, 1; glucose, 5; pH 7.4 at 25° C.) containing 5 μM DiBAC(4)3 and incubated with […] of the buffer in a cell incubator for 30 minutes at 37° C. to ensure dye distribution across the membrane. After recording the baseline fluorescence for 5 minutes, the reference or test compounds, prepared at 10 times the concentration in the assay buffer, were added directly to the wells. Changes in fluorescence were monitored for an additional 25 minutes. Hyperpolarization responses were corrected for any background noise and were normalized to the response observed with 10 μM of the reference compound P1075 (assigned as 100%), a potent opener of smooth muscle KATP channels (Quast et al., Mol. Pharmacol., v. 43 pp. 474-481 (1993)).
Routinely, five concentrations of P1075 or test compounds (log or half-log dilutions) were evaluated and the maximal steady-state hyperpolarization values (expressed as % relative to P1075) plotted as a function of concentration. […]

[2] = test system: tissue strips obtained from Landrace pig bladders; assay: Functional potassium channel opening activity in isolated bladder strips (field-stimulated twitch); settings: for EC50: amount causing 50% of the agent's maximal response, read-out: ED50 (the source's name)
Procedure: Compounds were evaluated for functional potassium channel opening activity using tissue strips obtained from Landrace pig bladders.
Landrace pig bladders were obtained from female Landrace pigs of 930 kg. Landrace pigs were euthanized with an intraperitoneal injection of pentobarbital solution, Somlethal®, J. A. Webster Inc., Sterling Mass. The entire bladder was removed and immediately placed into Krebs Ringer bicarbonate solution (composition, mM: NaCl, 120; NaHCO3, 20; dextrose, 11; KCl, 4.7; CaCl2, 2.5; MgSO4, 1.5; KH2PO4, 1.2; K2EDTA, 0.01, equilibrated with 5% CO2/95% O2pH 7.4 at 37° C.). Propranolol (0.004 mM) was included in all of the assays to block β-adrenoceptors. The trigonal and dome portions were discarded. Strips 3-5 mm wide and 20 mm long were prepared from the remaining tissue cut in a circular fashion. The mucosal layer was removed. One end was fixed to a stationary glass rod and the other to a Grass FT03 transducer at a basal preload of 1.0 gram. Two parallel platinum electrodes were included in the stationary glass rod to provide field stimulation of 0.05 Hz, 0.5 milli-seconds at 20 volts. This low frequency stimulation produced a stable twitch response of 100-500 centigrams. Tissues were allowed to equilibrate for at least 60 minutes and primed with 80 mM KCl. A control concentration response curve (cumulative) was generated for each tissue using the potassium channel opener P1075 as the control agonist. […] After a 60 minute rinsing period, a concentration response curve (cumulative) was generated for the test agonist in the same fashion as that used for the control agonist P1075. The maximal efficacy of each compound (expressed as % relative to P1075) is reported. The amount of agent necessary to cause 50% of the agent's maximal response (ED50) was calculated using “ALLFIT” (DeLean et al., Am. J. Physiol., 235, E97 (1980)), hereby incorporated by reference. Agonist potencies were also expressed as an index relative to P1075. The index was calculated by dividing the ED50 for P1075 by the ED50 for the test agonist in a given tissue. Each tissue was used for only one test agonist, and the indices obtained from each tissue were averaged to provide an average index of potency.

Compound CC(C)(C)C(NC(=O)c1ccc(I)cc1)NS(=O)(=O)Nc1cccnc1 (stereo not drawn) [Example 34, N-(2,2-dimethyl-1-{[(3-pyridinylamino)sulfonyl]amino}propyl)-4iodobenzamide] has a melting point of 177 to 178 °C.

With CC(C)(Cc1ccccc1)C(NC(=O)c1ccc(Cl)cc1)Nc1c(Nc2cccnc2)c(=O)c1=O (stereo not drawn) [Example 18] the “Maximal Response (% P1075)” value ([1]; maximal steady-state hyperpolarization, normalized to 10 μM P1075 (100%), GPB cells) was 97 % P1075, the EC50 [1] was 510 nM and the Index ([2]; ED50 for P1075 divided by ED50 for the test agonist in a given tissue, averaged) was 0.055. For the same compound, the EC50 ([2]; Landrace pig bladder strips) was 17 µM and the “Efficacy (% P1075)” value ([2]; maximal efficacy relative to P1075, Landrace pig bladder strips, field stimulation 0.05 Hz) was 62 % P1075.

Work on C=CCC(C)(C)C(NC(=O)c1ccc(Cl)cc1)Nc1c(Nc2cccnc2)c(=O)c1=O (stereo not drawn) [Example 17, 4-chloro-N-(-1-{[3,4-dioxo-2-(3-pyridinylamino)-1-cyclobuten-1-yl]amino}-2,2-dimethyl-4-pentenyl)benzamide] yielded an EC50 ([1]; Cavia porcellus) of 180 nM, an EC50 ([2]; Sus scrofa, Landrace pig bladder strips) of 5.8 µM and an Emax ([2]; Sus scrofa, maximal efficacy relative to P1075, Landrace pig bladder strips, field stimulation 0.05 Hz) of 92%.
